Data: patent publication US5288709A, “Erythromycin derivatives” (priority 1991, dated 1994)
In brackets after ≈: the same amount, converted by molar mass. Where two headings read alike, the source gives them in different places.

Key:
Test in all cases: In-vitro antimicrobial activity primary screen (agar dilution MIC)
Type in all cases: cell-based
[1] = test system: Acinetobacter SP CMX 669; settings: Acinetobacter, SPCMX669, 24 h
Protocol: (§1) The antimicrobial spectra of several of the compounds of the present invention were tested as described below.
(§2) Twelve petri dishes containing successive aqueous dilutions of the test compounds, mixed with 10 mL of sterilized Brain Heart Infusion (BHI) agar (Difco 0418-01-5), were prepared. Each plate was inoculated with 1:100 (or 1:10 for slow growing strains (primarily Micrococcus and Streptococcus) dilutions of up to 32 different microorganisms, using a Steers replicator block. The inoculated plates were incubated at 35 37° C. for 20-24 hours. In addition, a control plate, using BHI agar containing no test compound, was prepared and incubated at the beginning and the end of each test.
(§3) An additional plate containing a compound having known susceptibility patterns for the organisms being tested and belonging to the same antibiotic class as the test compounds was also prepared and incubated as a further control, as well as to provide test-to test comparability.
(§4) After incubation, each plate was read. The MIC (minimum inhibitory concentration) is defined as the lowest concentration of test compound yielding no growth, a slight haze, or sparsely isolated colonies on the inoculum spot as compared to the growth control containing no test compound.

[2] = test system: Enterobacter aerogenes ATCC 13048; settings: Klebsiella aerogenes, ATCC13048, 24 h
Protocol: as §1, §2, §3, §4

[3] = test system: Enterococcus faecium ATCC 8043; settings: Enterococcus faecium, ATCC8043, 24 h
Protocol: as §1, §2, §3, §4

[4] = test system: Escherichia coli DC-2; settings: Escherichia coli, DC2, 24 h
Protocol: as §1, §2, §3, §4

[5] = test system: Escherichia coli H560; settings: Escherichia coli, H560, 24 h, Escherichia coli H560; BHI agar, 20-24 h
Protocol: as §1, §2, §3, §4

[6] = test system: Escherichia coli JUHL; settings: Escherichia coli, 24 h
Protocol: as §1, §2, §3, §4

[7] = test system: Escherichia coli SS; settings: BHI agar, 20-24 h
Protocol: as §1, §2, §3, §4

[8] = test system: Klebsiella pneumoniae ATCC 8045; settings: Klebsiella pneumoniae, ATCC8045, 24 h
Protocol: as §1, §2, §3, §4

[9] = test system: Micrococcus luteus ATCC 4698; settings: Micrococcus luteus, ATCC4698, 24 h, BHI agar, 20-24 h
Protocol: as §1, §2, §3, §4

[10] = test system: Micrococcus luteus ATCC 9341; settings: Micrococcus luteus, ATCC9341, 24 h, BHI agar, 20-24 h
Protocol: as §1, §2, §3, §4

[11] = test system: Providencia stuartii CMX 640; settings: Providencia stuartii, CMX640, 24 h
Protocol: as §1, §2, §3, §4

[12] = test system: Pseudomonas aeruginosa A5007; settings: Pseudomonas aeruginosa, A5007, 24 h
Protocol: as §1, §2, §3, §4

[13] = test system: Pseudomonas aeruginosa BMH10; settings: Pseudomonas aeruginosa, BMH10, 24 h, BHI agar, 20-24 h
Protocol: as §1, §2, §3, §4

[14] = test system: Pseudomonas aeruginosa K799/61; settings: Pseudomonas aeruginosa K799/61, BHI agar, 20-24 h
Protocol: as §1, §2, §3, §4

[15] = test system: Pseudomonas aeruginosa K799/WT; settings: Pseudomonas aeruginosa, K799/WT, 24 h
Protocol: as §1, §2, §3, §4

[16] = test system: Pseudomonas cepacia 2961; settings: Burkholderia cepacia, 2961, 24 h, BHI agar, 20-24 h
Protocol: as §1, §2, §3, §4

[17] = test system: Staphylococcus aureus 45 RAR2; settings: Staphylococcus aureus, 45RAR2, 24 h, BHI agar, 20-24 h
Protocol: as §1, §2, §3, §4

[18] = test system: Staphylococcus aureus 45; settings: BHI agar, 20-24 h
Protocol: as §1, §2, §3, §4

[19] = test system: Staphylococcus aureus A5177; settings: Staphylococcus aureus A5177, BHI agar, 20-24 h
Protocol: as §1, §2, §3, §4

[20] = test system: Staphylococcus aureus ATCC 6538P; settings: Staphylococcus aureus, ATCC6538P, 24 h, BHI agar, 20-24 h
Protocol: as §1, §2, §3, §4

[21] = test system: Staphylococcus epidermidis 3519; settings: BHI agar, 20-24 h
Protocol: as §1, §2, §3, §4

[22] = test system: Streptococcus agalactiae CMX 508; settings: 20-24 h
Protocol: as §1, §2, §3, §4

[23] = test system: Streptococcus bovis A5169; settings: Streptococcus equinus, BHI agar, 20-24 h
Protocol: as §1, §2, §3, §4

[24] = test system: Streptococcus pyrogenes 2548 INDUC; settings: BHI agar, 20-24 h, read-out: MIC
Protocol: as §1, §2, §3, §4

[25] = test system: Streptococcus pyrogenes EES61; settings: BHI agar, 20-24 h, read-out: MIC
Protocol: as §1, §2, §3, §4

[26] = test system: Staphylococcus aureus CMX 503A; settings: Staphylococcus aureus, CMX503A, 24 h, BHI agar, 20-24 h, read-out: MIC
Protocol: as §1, §2
as §3, with “comparability. Erythromycin A was used for this purpose.” for “comparability.”
as §4

[27] = test system: Staphylococcus aureus CMX 553; settings: Staphylococcus aureus, CMX553, 24 h, BHI agar, 20-24 h, read-out: MIC
Protocol: as §1, §2
as §3, with “comparability. Erythromycin A was used for this purpose.” for “comparability.”
as §4

[28] = test system: Staphylococcus aureus CMX 686B; settings: CMX686B, BHI agar, 20-24 h, read-out: MIC
Protocol: as §1, §2
as §3, with “comparability. Erythromycin A was used for this purpose.” for “comparability.”
as §4

Row | SMILES | MIC [1] | MIC [3] | MIC [5] | MIC [9] | MIC [10] | MIC [11] | MIC [12] | MIC [13] | MIC [15] | MIC [16] | MIC [17] | MIC [20] | MIC [24] | MIC [25] | MIC [26] | MIC [27] | MIC [28] | other results
1 | CC[C@H]1OC(=O)[C@H](C)[C@@H](O[C@H]2C[C@@](C)(OC)[C@@H](OC(N)=O)[C@H](C)O2)[C@H](C)[C@@H](O[C@@H]2O[C@H](C)C[C@H](N(C)C)[C@H]2O)[C@](C)(O)C[C@@H](C)[C@@H]2O[C@@]1(C)[C@@H](O)[C@H]2C [Example 17, (9S,11S)-4"-O-Aminocarbonyl-9-deoxo-12-deoxy-9,12-epoxyerythromycin A] | 50 µg/mL (≈ 65.7 µM) | 0.2 µg/mL (≈ 0.263 µM) | 25 µg/mL (≈ 32.9 µM) | 0.2 µg/mL (≈ 0.263 µM) | 0.05 µg/mL (≈ 0.0657 µM) | > 100 µg/mL | > 100 µg/mL | 25 µg/mL (≈ 32.9 µM) | 25 µg/mL (≈ 32.9 µM) | > 100 µg/mL | 0.39 µg/mL (≈ 0.513 µM) | 0.2 µg/mL (≈ 0.263 µM) | 1.56 µg/mL (≈ 2.05 µM) | 0.02 µg/mL (≈ 0.0263 µM) | 0.39 µg/mL (≈ 0.513 µM) | 0.39 µg/mL (≈ 0.513 µM) | 0.39 µg/mL (≈ 0.513 µM) | MIC ([2]; Enterobacter aerogenes ATCC 13048, BHI agar, 20-24 h): 50 µg/mL (≈ 65.7 µM); MIC ([4]; Escherichia coli DC-2, BHI agar, 20-24 h): 50 µg/mL (≈ 65.7 µM); MIC ([6]; Escherichia coli JUHL, BHI agar, 20-24 h): 50 µg/mL (≈ 65.7 µM); MIC ([7]; Escherichia coli, 24 h): 0.2 µg/mL (≈ 0.263 µM); MIC ([8]; Klebsiella pneumoniae ATCC 8045, BHI agar, 20-24 h): 25 µg/mL (≈ 32.9 µM); MIC ([14]; read-out: MIC): 0.78 µg/mL (≈ 1.03 µM); MIC ([18]; Staphylococcus aureus, 45, 24 h): 0.78 µg/mL (≈ 1.03 µM); MIC ([19]; read-out: MIC): 12.5 µg/mL (≈ 16.4 µM); MIC ([21]; read-out: MIC): 0.78 µg/mL (≈ 1.03 µM); MIC ([22]; CMX508, BHI agar, read-out: MIC): 0.02 µg/mL (≈ 0.0263 µM); MIC ([23]; A5169, 24 h): 0.05 µg/mL (≈ 0.0657 µM)
2 | CC[C@H]1OC(=O)[C@H](C)[C@@H](O[C@H]2C[C@@](C)(OC)[C@H](N=CN(C)C)[C@H](C)O2)[C@H](C)[C@@H](O[C@@H]2O[C@H](C)C[C@H](N(C)C)[C@H]2O)[C@](C)(O)C[C@@H](C)[C@@H]2O[C@@]1(C)C(=O)[C@H]2C [Example 9, (4"R,9S)-9-Deoxo-4",11,12-trideoxy-9,12-epoxy-4"-[[(dimethyamino)methylene]amino]-11-oxoerythromycin A] | 50 µg/mL (≈ 64.9 µM) | 0.1 µg/mL (≈ 0.13 µM) | 50 µg/mL (≈ 64.9 µM) | 0.2 µg/mL (≈ 0.26 µM) | 0.02 µg/mL (≈ 0.026 µM) | > 100 µg/mL | > 100 µg/mL | > 100 µg/mL | 100 µg/mL (≈ 130 µM) | > 100 µg/mL | 0.78 µg/mL (≈ 1.01 µM) | 0.39 µg/mL (≈ 0.506 µM) | 6.2 µg/mL (≈ 8.05 µM) | < 0.005 µg/mL | 0.39 µg/mL (≈ 0.506 µM) | 0.39 µg/mL (≈ 0.506 µM) | 0.39 µg/mL (≈ 0.506 µM) | MIC [2]: > 100 µg/mL; MIC [4]: > 100 µg/mL; MIC [6]: > 100 µg/mL; MIC ([7]; read-out: MIC): 0.78 µg/mL (≈ 1.01 µM); MIC [8]: > 100 µg/mL; MIC ([14]; Pseudomonas aeruginosa, K799/61, 24 h): 3.1 µg/mL (≈ 4.03 µM); MIC ([18]; read-out: MIC): 0.39 µg/mL (≈ 0.506 µM); MIC ([19]; Staphylococcus aureus, A5177, 24 h): 0.78 µg/mL (≈ 1.01 µM); MIC ([21]; Staphylococcus epidermidis, 3519, 24 h): 0.39 µg/mL (≈ 0.506 µM); MIC ([22]; Streptococcus agalactiae, CMX508, 24 h, BHI agar): 0.01 µg/mL (≈ 0.013 µM); MIC ([23]; read-out: MIC): < 0.005 µg/mL
